Assay results: patent US7425614B2, “Neuroprotective therapeutics preventing ERK/MAPK activation through the NMDA receptor” (Children's Medical Center Corporation, priority 2003, dated 2008)
Where two headings read alike, the source gives them in different places.

Tests used:
[1] = target: T1, NR2A (Rattus norvegicus, UniProt Q00959); settings: 3 μM; heterologous expression systems; cited from earlier work
T1 construct: host or cells: heterologous expression systems (not specified)

[2] = target: T2, NR2B (Rattus norvegicus, UniProt P35439+Q00960); settings: 3 μM; heterologous expression systems; cited from earlier work
T2 construct: host or cells: heterologous expression systems (not specified)

[3] = system: NMDA receptors; settings: cited from earlier work
[4] = system: NMDA receptor; assay: whole-cell recordings of NMDAR-mediated currents in cultured hippocampal neurons; format: cell-based, rat
[5] = system: ERK; assay: phospho-ERK immunocytochemistry in cultured hippocampal neurons; format: cell-based, rat
Description: Neurons from 18 day rat embryos were dissociated using trypsin and plated on coverslips coated with poly-L-ysine in minimal essential medium (MEM) with 10% NU serum (BD Biosciences, Le Pont de Claix, France) at densities of 30,000 cells/cm^2 as described (Brewer, G. J. (1995) J. Neurosci. Res. 42, 674-683). On days 7 and 11 of culture incubation, half of the medium was changed to MEM with 2% B27 supplement (Invitrogen).
Cells were transfected with cDNA for EGFP fusion proteins (LipofectAMINE 2000; Invitrogen) or by pseudoviral infection using a Sindbis expression system (Invitrogen). Neurons were incubated with cDNA and LipofectAMINE for 2 hr, rinsed, and incubated with culture media (MEM with 2% of B27 supplement) 17 hr prior to the experiment. For viral delivery, neuronal cultures were incubated 30 min with pseudoviral constructs diluted 200-500× in culture media. Cultures were rinsed and incubated in media for 15 hr. 0.1% to 1.5% of neurons were fluorescent after expressing LipofectAMINE-delivered constructs while Sindbis infection yielded 1%-10% transfection efficiency. Most of the experiments were performed on 12-14 days in vitro (div) cultures unless otherwise indicated.
Three hours before stimulation, TTX (1 μM), CNQX (40 μM), APV (100 μM), and nimodipine (5 μM) were added to neurons. For stimulation, coverslips with neurons were transferred into the following solutions.
(1) 100 μM NMDA, 10 μM glycine, 1 μM TTX, 40 μM CNQX, 5 μM nimodipine dissolved in culture media and incubated for 3 min. […]
After stimulation, neurons were fixed with 4% formaldehyde and labeled with rabbit anti-phospho-p44/42 ERK antibody (Cell Signaling) and with mouse anti-MAP2 antibody (Sternberger Monoclonals). Cy3-conjugated goat anti-rabbit IgG and Cy5-conjugated goat antimouse IgG (Jackson Immunoresearch Laboratories, West Grove, Pa.) were secondary antibodies. NMDA and all antagonists were from Tocris Neuramin. BDNF was from Calbiochem. Images were acquired with an Olympus Fluoview-500 confocal microscope (40×; 1.0 NA) and quantified using Olympus Fluoview software. In each experiment, the pERK fluorescence of the cell soma was measured for 25 neurons taken from consecutive fields. Phospho-ERK fluorescence data were normalized to the values obtained in nontransfected cells after NMDA stimulation. The background fluorescence (mean fluorescence of nonstimulated neurons) was subtracted prior to normalization.

[6] = system: SynGAP; assay: phosphorylation of SynGAP in cultured hippocampal neurons; format: cell-based, rat; settings: control experiments
[7] = system: CREB transcription factor; assay: phosphorylation of CREB in cultured hippocampal neurons; format: cell-based, rat; settings: control experiments
[8] = target: T3, full-length NR2B (Rattus norvegicus, UniProt Q00960); assay: in vitro binding of in vitro translated HA-tagged RasGRF1 fragments to full-length NR2B (co-immunoprecipitation); settings: epitope-tagged RasGRF1 fragments
T3 construct: In vitro translated full-length NR2B and HA-tagged RasGRF1 fragments were co-immunoprecipitated with anti-HA antibody; made in house; host or cells: cell-free in vitro translation (35S-labelled)
Description: For in vitro translation, fragments of rat NR2B and rat RasGRF1 were made by PCR with 5′-primers containing AU1- and HA-tag encoding sequences; amplified sequences were subcloned into pcDNA3.1. For 293T transfection, the following cDNAs were used: mouse RasGRF1 in pcDNA3, GFP-rat NR2B, GFP rat NR2A in pcDNA1.1, and rat NR1 in pEGFP-C1 (Clontech). EGFP fusion constructs were made by subcloning cDNA fragments encoding different portions of NR2B and RasGRF1 into pEGFP-C1 (Clontech). EGFP fusion constructs were transferred from pEGFP into pSinRep5 and used for preparation of the Sindbis pseudovirus gene transfer system according to the manufacturer's protocol (Invitrogen, Carlsbad, Calif.).
For in vitro binding experiments, equimolar amounts of in vitro translated ^35S-labeled proteins (calculated from radioactivity of the excised protein band and cysteine content in the specific fragment) were incubated with a 3-fold molar excess of translated RasGRF1 for 30 min at 30° C., diluted with RIPA buffer, and immunoprecipitated with anti-HA-agarose (Santa Cruz). In competition experiments, RasGRF1 and NR2B were immunoprecipitated for 2 hr at 4° C. from solubilized rat brain microsomes in the presence of 10 μM NusA, 10 μM NusA-RasGRF1-BD, or 5 μM NusA-NR2B-BD.

T3 sequence (Q00960 27-1482 E1256K/V1430S/T1431A): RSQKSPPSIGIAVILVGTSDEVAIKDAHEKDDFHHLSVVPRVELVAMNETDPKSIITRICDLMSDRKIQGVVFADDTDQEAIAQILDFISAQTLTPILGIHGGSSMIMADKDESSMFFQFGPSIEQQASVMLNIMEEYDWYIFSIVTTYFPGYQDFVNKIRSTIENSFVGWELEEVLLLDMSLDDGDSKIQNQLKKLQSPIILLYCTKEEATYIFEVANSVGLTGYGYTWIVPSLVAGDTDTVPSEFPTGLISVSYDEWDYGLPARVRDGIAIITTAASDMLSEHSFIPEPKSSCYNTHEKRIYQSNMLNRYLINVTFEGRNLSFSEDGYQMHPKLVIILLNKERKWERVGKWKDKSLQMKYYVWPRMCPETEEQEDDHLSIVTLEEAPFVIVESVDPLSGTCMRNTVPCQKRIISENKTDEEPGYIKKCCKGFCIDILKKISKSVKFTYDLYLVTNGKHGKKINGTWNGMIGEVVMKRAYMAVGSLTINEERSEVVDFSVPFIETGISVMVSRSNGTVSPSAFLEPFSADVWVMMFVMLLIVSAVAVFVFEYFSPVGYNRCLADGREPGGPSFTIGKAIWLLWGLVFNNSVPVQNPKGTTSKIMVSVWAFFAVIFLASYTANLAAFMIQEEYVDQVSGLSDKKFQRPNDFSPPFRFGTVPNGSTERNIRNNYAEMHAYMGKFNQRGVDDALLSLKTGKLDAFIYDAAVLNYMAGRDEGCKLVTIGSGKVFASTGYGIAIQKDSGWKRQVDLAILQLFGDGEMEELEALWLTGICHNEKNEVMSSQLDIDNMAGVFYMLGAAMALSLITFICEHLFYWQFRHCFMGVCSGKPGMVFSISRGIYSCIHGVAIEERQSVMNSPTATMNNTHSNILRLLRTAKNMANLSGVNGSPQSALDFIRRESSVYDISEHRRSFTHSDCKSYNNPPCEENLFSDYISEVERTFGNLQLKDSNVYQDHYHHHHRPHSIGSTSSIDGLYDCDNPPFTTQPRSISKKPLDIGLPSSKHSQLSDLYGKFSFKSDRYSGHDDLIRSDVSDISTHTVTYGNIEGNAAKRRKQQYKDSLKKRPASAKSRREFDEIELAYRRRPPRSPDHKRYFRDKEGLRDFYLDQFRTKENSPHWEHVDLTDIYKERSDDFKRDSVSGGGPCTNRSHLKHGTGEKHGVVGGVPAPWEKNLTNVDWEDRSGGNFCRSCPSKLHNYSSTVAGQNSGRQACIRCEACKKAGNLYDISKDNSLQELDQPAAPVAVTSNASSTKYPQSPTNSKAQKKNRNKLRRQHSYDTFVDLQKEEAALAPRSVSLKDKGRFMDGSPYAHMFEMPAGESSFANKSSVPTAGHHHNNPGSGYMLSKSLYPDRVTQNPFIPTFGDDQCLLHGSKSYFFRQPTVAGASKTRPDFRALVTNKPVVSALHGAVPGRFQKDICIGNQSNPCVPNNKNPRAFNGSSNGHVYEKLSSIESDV
T2 sequence (Q00960 27-1482, other chains not shown): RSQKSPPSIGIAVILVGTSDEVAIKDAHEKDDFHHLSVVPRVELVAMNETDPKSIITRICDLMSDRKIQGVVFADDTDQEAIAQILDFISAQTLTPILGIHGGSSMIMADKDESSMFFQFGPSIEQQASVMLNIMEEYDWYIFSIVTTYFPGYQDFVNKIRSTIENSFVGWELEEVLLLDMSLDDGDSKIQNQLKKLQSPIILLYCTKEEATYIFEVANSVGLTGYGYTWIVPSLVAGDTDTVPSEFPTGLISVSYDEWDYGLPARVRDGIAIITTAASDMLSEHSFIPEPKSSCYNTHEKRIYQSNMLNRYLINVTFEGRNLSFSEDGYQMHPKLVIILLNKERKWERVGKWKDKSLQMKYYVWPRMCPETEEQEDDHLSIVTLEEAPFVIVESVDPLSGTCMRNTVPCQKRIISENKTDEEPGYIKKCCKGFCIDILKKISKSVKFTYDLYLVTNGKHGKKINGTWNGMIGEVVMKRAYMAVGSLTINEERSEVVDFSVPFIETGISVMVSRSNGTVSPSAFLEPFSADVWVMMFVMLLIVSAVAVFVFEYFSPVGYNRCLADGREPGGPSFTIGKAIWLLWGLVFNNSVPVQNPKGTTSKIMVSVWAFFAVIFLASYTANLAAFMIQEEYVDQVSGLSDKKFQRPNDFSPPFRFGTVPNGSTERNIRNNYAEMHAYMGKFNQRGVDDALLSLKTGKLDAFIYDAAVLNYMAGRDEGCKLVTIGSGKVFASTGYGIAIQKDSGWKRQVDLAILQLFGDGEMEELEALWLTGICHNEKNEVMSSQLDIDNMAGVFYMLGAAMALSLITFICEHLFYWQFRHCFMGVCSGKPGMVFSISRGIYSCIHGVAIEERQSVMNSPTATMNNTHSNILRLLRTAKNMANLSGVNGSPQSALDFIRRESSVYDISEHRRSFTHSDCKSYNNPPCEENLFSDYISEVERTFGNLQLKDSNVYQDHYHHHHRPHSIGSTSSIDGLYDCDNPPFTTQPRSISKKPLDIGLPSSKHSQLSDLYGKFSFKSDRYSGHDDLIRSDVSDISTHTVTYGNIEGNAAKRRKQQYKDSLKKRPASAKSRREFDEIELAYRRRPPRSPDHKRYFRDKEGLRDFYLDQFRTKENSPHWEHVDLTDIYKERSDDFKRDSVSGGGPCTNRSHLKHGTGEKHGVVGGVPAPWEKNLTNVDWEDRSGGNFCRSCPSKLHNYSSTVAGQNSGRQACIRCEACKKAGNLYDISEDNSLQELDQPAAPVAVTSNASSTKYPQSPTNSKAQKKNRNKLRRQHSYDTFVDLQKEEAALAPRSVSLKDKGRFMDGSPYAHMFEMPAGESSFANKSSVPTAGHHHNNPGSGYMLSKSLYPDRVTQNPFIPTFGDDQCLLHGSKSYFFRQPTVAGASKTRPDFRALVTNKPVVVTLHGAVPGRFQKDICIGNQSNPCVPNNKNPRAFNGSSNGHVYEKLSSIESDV
T1 sequence (Q00959 23-1464): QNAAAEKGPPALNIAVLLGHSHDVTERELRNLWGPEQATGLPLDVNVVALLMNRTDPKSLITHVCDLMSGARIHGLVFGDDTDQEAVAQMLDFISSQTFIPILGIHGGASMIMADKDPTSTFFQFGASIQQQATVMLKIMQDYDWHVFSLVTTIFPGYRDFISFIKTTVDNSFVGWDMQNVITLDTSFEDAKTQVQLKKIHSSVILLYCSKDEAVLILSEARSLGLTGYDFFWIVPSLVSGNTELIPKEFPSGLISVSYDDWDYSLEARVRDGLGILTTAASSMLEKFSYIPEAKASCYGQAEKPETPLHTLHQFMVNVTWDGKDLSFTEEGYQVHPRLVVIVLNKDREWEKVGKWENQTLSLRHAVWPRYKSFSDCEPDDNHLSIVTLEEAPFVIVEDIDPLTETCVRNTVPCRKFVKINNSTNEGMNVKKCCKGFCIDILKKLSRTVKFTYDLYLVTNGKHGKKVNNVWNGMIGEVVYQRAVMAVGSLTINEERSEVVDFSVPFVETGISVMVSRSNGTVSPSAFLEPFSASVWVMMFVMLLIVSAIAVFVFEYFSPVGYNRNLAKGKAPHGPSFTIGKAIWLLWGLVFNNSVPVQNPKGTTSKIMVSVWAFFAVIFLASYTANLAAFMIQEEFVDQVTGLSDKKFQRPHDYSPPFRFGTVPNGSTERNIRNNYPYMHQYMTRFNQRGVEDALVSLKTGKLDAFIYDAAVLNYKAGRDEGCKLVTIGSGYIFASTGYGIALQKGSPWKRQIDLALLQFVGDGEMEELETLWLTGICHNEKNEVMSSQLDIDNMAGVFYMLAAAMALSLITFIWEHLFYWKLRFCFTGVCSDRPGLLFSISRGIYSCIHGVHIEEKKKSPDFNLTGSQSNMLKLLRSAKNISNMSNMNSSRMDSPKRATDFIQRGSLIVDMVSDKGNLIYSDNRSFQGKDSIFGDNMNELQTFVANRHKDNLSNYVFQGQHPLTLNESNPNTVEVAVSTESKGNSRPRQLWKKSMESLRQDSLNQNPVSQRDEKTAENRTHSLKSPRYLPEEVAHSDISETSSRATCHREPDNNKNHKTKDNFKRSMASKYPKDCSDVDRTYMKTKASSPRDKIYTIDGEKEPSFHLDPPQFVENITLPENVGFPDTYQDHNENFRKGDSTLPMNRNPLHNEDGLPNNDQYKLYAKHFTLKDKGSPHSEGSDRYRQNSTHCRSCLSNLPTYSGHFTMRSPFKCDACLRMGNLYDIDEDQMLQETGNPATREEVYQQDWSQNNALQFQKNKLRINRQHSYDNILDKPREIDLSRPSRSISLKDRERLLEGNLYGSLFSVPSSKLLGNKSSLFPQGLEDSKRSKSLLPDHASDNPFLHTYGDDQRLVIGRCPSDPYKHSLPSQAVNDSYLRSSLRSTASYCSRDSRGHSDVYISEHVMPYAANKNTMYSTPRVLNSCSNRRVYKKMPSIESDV

Molecule: CC(C(O)c1ccc(O)cc1)N1CCC(Cc2ccccc2)CC1 (stereo not drawn) [ifenprodil]
- effect on NR2A-mediated current [1]: has no effect
- inhibition of NR2B-mediated current [2]: up to 80%
- inhibition of NMDA-mediated current ([3]; 3-week-old cultures): 20%-30
- inhibition of NMDA-mediated current ([3]; young neuronal cultures): ~70%
- decrease of the portion of the ifenprodil-sensitive NMDA current with days in culture [4]: ~25%
- frequency of spontaneous NMDAR EPSCs [4]: significantly reduced
- suppression of NMDAR current [4]: 60%
- inhibition at 3 µM ([5]; Rattus norvegicus, Hippocampal neuron, 3 μM, hippocampal neurons 8 div, read-out: inhibition of NMDAR activated ERK): 70%
- degree of ifenprodil-sensitive ERK activation with days in culture ([5]; during neuron maturation): did not change significantly

Molecule: COc1ccc(S(=O)(=O)N(CCO)c2ccccc2CN(C)C/C=C/c2ccc(Cl)cc2)cc1 [KN-93]
- phosphorylation of SynGAP [6]: effectively suppressed
- phosphorylation of CREB [7]: effectively suppressed
- NMDA-dependent ERK activation ([5]; 5 μM in the incubation media): had no effect
- bicuculline-induced ERK activation ([5]; cultured hippocampal neurons, 10 μM bicuculline): altered neither
- NMDA-induced (NMDAR-dependent) ERK activation ([5]; cultured hippocampal neurons, 100 μM NMDA): altered neither

B1: RasGRF1 amino acids 714-841: shorter peptide of the RasGRF1-specific sequence (protein, UniProt Q13972 714-841, looked up, fragment)
chain: FASGQNNKLLYGEPPKSPRATRKFSSPPPLSITKTSSPSRRRKLSLNIPIITGGKALDLAALSCNSNGYTSMYSAMSPFSKATLDTSKLYVSSSFTNKIPDEGDTTPEKPEDPSALSKQSSEVSMREE
- binding to NR2B in vitro [8]: did not bind

B2: RasGRF1 amino acids 835-913: shorter peptide of the RasGRF1-specific sequence (protein, UniProt Q13972 835-913, looked up, fragment)
chain: EVSMREESDIDQNQSDDGDTETSPTKSPTTPKSVKNKNSSEFPLFSYNNGVVMTSCRELDNNRSALSAASAFAIATAGA
- binding to NR2B in vitro [8]: did not bind

B3: RasGRF1 amino acids 1-720: N-terminal portion of RasGRF1, which contains multiple functional domains (protein, UniProt Q13972 1-720, looked up, fragment)
chain: MQKGIRLNDGHVASLGLLARKDGTRKGYLSKRSSDNTKWQTKWFALLQNLLFYFESDSSSRPSGLYLLEGCVCDRAPSPKPALSAKEPLEKQHYFTVNFSHENQKALELRTEDAKDCDEWVAAIAHASYRTLATEHEALMQKYLHLLQIVETEKTVAKQLRQQIEDGEIEIERLKAEITSLLKDNERIQSTQTVAPNDEDSDIKKIKKVQSFLRGWLCRRKWKTIIQDYIRSPHADSMRKRNQVVFSMLEAEAEYVQQLHILVNNFLRPLRMAASSKKPPITHDDVSSIFLNSETIMFLHQIFYQGLKARISSWPTLVLADLFDILLPMLNIYQEFVRNHQYSLQILAHCKQNRDFDKLLKHYEAKPDCEERTLETFLTYPMFQIPRYILTLHELLAHTPHEHVERNSLDYAKSKLEELSRIMHDEVSETENIRKNLAIERMIIEGCEILLDTSQTFVRQGSLIQVPMSEKGKITRGRLGSLSLKKEGERQCFLFSKHLIICTRGSGGKLHLTKNGVISLIDCTLLEEPESTEEEAKGSGQDIDHLDFKIGVEPKDSPPFTVILVASSRQEKAAWTSDISQCVDNIRCNGLMMNAFEENSKVTVPQMIKRTREGTREAEMSRSDASLYCDDVDIRFSKTMNSCKVLQIRYASVERLLERLTDLRFLSIDFLNTFLHSYRVFTTAIVVLDKLITIYKKPISAIPARWLRSLELLFASGQNN
- binding to NR2B in vitro [8]: did not bind

B4: RasGRF1 amino acids 714-1244: C-terminal prey-containing sequence of RasGRF1 (protein, UniProt Q13972 714-1244, looked up, fragment)
chain: FASGQNNKLLYGEPPKSPRATRKFSSPPPLSITKTSSPSRRRKLSLNIPIITGGKALDLAALSCNSNGYTSMYSAMSPFSKATLDTSKLYVSSSFTNKIPDEGDTTPEKPEDPSALSKQSSEVSMREESDIDQNQSDDGDTETSPTKSPTTPKSVKNKNSSEFPLFSYNNGVVMTSCRELDNNRSALSAASAFAIATAGANEGTPNKEKYRRMSLASAGFPPDQRNGDKEFVIRRAATNRVLNVLRHWVSKHSQDFETNDELKCKVIGFLEEVMHDPELLTQERKAAANIIRTLTQEDPGDNQITLEEITQMAEGVKAEPFENHSALEIAEQLTLLDHLVFKKIPYEEFFGQGWMKLEKNERTPYIMKTTKHFNDISNLIASEIIRNEDINARVSAIEKWVAVADICRCLHNYNAVLEITSSMNRSAIFRLKKTWLKVSKQTKALIDKLQKLVSSEGRFKNLREALKNCDPPCVPYLGMYLTDLAFIEEGTPNYTEDGLVNFSKMRMISHIIREIRQFQQTAYKIEHQAKV
- binding to NR2B in vitro [8]: bound
